Patent US9714249B2 (Novartis AG, priority 2013, dated 2017)

Columns and labels:
Conditions in all cases: acetyl-histone H4 peptide
BRD4 (His-Brd4(44-477)) = BRD4 (His-Brd4(44-477)) (Homo sapiens (Human), UniProt O60885); experiment: TR-FRET in-vitro binding assay for BRD4
Method: All assays were performed in 384 well microtiter plates. Each assay plate contained 8-point serial dilutions for 40 test compounds, plus 16 high- and 16 low controls. Liquid handling and incubation steps were done on an Innovadyne Nanodrop Express equipped with a robotic arm (Thermo CatX, Perkin Elmer/Caliper Twister II) and an incubator (Liconic STX40, Thermo Cytomat 2C450). The assay plates were prepared by addition of 50 nl per well of compound solution in 90% DMSO HummingBird nanodispenser (Zinsser Analytic). […] Reactions were incubated at 30° C. for 35 minutes. […] After 35 minutes incubation at 30° C., plates were measured in a Perkin Elmer EnVision multilabel reader.
(§1) Test compounds were dissolved in DMSO (10 mM) and transferred into 1.4 mL flat bottom or V-shaped Matrix tubes carrying a unique 2D matrix. The stock solutions were stored at […] if not used immediately. For the test procedure the vials were defrosted and identified by a scanner whereby a working sheet was generated that guided the subsequent working steps. Compound dilutions were made in 96 well plates. This format enabled the assay of maximally 40 individual test compounds at 8 concentrations (single points) including 4 reference compounds, if desired (known BET inhibitors from the prior art, for this and other assays of the type disclosed herein). The dilution protocol included the production of “pre-dilution plates”, “master plates” and “assay plates”.
(§2) Pre-dilution plates: 96 polypropylene well plates were used as pre-dilution plates. A total of 4 pre-dilution plates were prepared including 10 test compounds each on the plate positions A1-A10, one standard compound at A11 and one DMSO control at A12. All dilution steps were done on a HamiltonSTAR robot. […] These plates were used directly for the assay which was performed in a total volume of 13.55 μL. […] Cell Growth Inhibition Assay

BRD3 (His-Brd3(20-477)) = BRD3 (His-Brd3(20-477)) (Homo sapiens (Human), UniProt Q15059); experiment: TR-FRET in-vitro binding assay for BRD3
Method: All assays were performed in 384 well microtiter plates. Each assay plate contained 8-point serial dilutions for 40 test compounds, plus 16 high- and 16 low controls. Liquid handling and incubation steps were done on an Innovadyne Nanodrop Express equipped with a robotic arm (Thermo CatX, Perkin Elmer/Caliper Twister II) and an incubator (Liconic STX40, Thermo Cytomat 2C450). The assay plates were prepared by addition of 50 nl per well of compound solution in 90% DMSO HummingBird nanodispenser (Zinsser Analytic). The assay was started by stepwise addition of 4.5 μl per well of bromo domain protein (50 mM HEPES, pH 7.5, 0.005% Tween20, 0.1% BSA, 50 mM NaCl, 45 nM His-Brd2(60-472) or 45 nM His-Brd3(20-477) or 45 nM His-Brd4(44-477) all proteins produced in-house) and 4.5 μl per well of peptide solution (50 mM HEPES, pH 7.5, 0.005% Tween20, 0.1% BSA, 50 mM NaCl, 60 nM acetyl-histone H4 (AcK 5, 8, 12, 16) (Biosyntan GmbH)). Reactions were incubated at 30° C. for 35 minutes. Subsequently 4.5 μl per well detection mix (50 mM HEPES, pH 7.5, 0.005% Tween20, 0.1% BSA, 50 mM NaCl, 3 nM Eu-labeled anti-His6 antibody, 21 nM streptavidin-allophycocyanin) were added. After 35 minutes incubation at 30° C., plates were measured in a Perkin Elmer EnVision multilabel reader. Concentrations causing 50% inhibition (1050) values were determined from percent inhibition values at different compound concentrations by non-linear regression analysis.
as §1
Pre-dilution plates: 96 polypropylene well plates were used as pre-dilution plates. A total of 4 pre-dilution plates were prepared including 10 test compounds each on the plate positions A1-A10, one standard compound at A11 and one DMSO control at A12. All dilution steps were done on a HamiltonSTAR robot. Master plates: 30 μL of individual compound dilutions including standard compound and controls of the 4 “pre-dilution plates” were transferred into a 384 “master plate” including the following concentrations 10000, 3003, 1000, 300, 100, 30, 10 and 3 μM, respectively in 90% of DMSO. Assay plates: Identical “assay plates” were then prepared by pipetting 50 nL each of compound dilutions of the “master plates” into 384-well “assay plates” by means of a HummingBird 384-channel dispenser. These plates were used directly for the assay which was performed in a total volume of 13.55 μL. This led to a final compound concentration of 37, 11, 3.7, 1.1, 0.37, 0.11, 0.037 and 0.011 μM and a final DMSO concentration of 0.37% in the assay. Cell Growth Inhibition Assay

[1] = target: CREBBP bromodomain (His-CREBBP (1081-1197)) (Homo sapiens (Human), UniProt Q92793); experiment: AlphaScreen in-vitro binding assay for CREBBP
Method: In order to assess bromodomain selectivity, we set up a binding assay using the bromodomain encoded by the CREBBP gene. […] Reactions were incubated at 30° C. for 35 minutes. Subsequently 4.5 μl per well detection mix (50 mM HEPES, pH 7.5, 0.005% Tween20, 0.02% BSA, 150 mM NaCl, 45 μg/ml Ni-chelate acceptor beads, 45 μg/ml streptavidin-donor beads) (Perkin Elmer)) were added. After 60 minutes incubation at room temperature, plates were measured in a Perkin Elmer EnVision multilabel reader. IC50 values were determined from percent inhibition values at different compound concentrations by non-linear regression analysis.
as §1, §2

Chain of BRD3 (His-Brd3(20-477)) (Q15059 20-477, species assumed): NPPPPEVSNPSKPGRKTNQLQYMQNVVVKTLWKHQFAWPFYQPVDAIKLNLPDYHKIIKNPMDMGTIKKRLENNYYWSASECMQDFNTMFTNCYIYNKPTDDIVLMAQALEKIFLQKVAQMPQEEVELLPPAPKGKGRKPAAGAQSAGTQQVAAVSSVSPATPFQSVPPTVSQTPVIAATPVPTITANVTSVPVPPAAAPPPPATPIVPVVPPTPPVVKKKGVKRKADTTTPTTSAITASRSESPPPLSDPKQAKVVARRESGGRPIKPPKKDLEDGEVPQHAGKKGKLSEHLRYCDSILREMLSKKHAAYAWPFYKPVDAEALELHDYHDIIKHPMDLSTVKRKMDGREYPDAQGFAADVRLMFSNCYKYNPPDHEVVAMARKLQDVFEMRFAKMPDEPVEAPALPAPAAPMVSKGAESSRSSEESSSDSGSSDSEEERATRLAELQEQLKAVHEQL
Chain of CREBBP bromodomain (His-CREBBP (1081-1197)) (Q92793 1081-1197): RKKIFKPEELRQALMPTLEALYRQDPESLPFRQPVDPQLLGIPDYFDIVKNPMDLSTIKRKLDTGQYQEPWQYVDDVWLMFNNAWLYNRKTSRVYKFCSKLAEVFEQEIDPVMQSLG

Structure (SMILES) | IC50 (BRD4 (His-Brd4(44-477))) | IC50 (BRD3 (His-Brd3(20-477))) | IC50 [1]
Cc1cc(N2C(=O)c3c(C4CC4)nn(-c4ccnn4C)c3C2c2ccc(Cl)cc2)cn(C)c1=O (stereo not drawn) [Example 5, 6-(4-chlorophenyl)-3-cyclopropyl-5-(1,5-dimethyl-6-oxo-1,6-dihydropyridin-3-yl)-1-(1-methyl-1H-pyrazol-5-yl)-5,6-dihydropyrrolo[3,4-c]pyrazol-4(1H)-one] | 96 nM | 82 nM | 5000 nM
COc1ncccc1-n1nc2c(c1C)C(=O)N(c1cc(Cl)c(=O)n(C)c1)C2c1ccc(Cl)cc1 (stereo not drawn) [Example 7b, 5-(5-chloro-1-methyl-6-oxo-1,6-dihydropyridin-3-yl)-6-(4-chlorophenyl)-2-(2-methoxypyridin-3-yl)-3-methyl-5,6-dihydropyrrolo[3,4-c]pyrazol-4(2H)-one] | 41 nM | 24 nM | 1900 nM
COc1ncc(-n2nc3c(c2C)C(=O)N(c2cc(C)c(=O)n(C)c2)C3c2ccc(Cl)cc2)c(OC)n1 (stereo not drawn) [Example 14, 6-(4-chlorophenyl)-2-(2,4-dimethoxypyrimidin-5-yl)-5-(1,5-dimethyl-6-oxo-1,6-dihydropyridin-3-yl)-3-methyl-5,6-dihydropyrrolo[3,4-c]pyrazol-4(2H)-one] | 100 nM | 74 nM | 5100 nM
COCCn1nc(C2CC2)c2c1C(c1ccc(Cl)cc1)N(c1cc(C)c(=O)n(C)c1)C2=O (stereo not drawn) [Example 4, 6-(4-chlorophenyl)-3-cyclopropyl-5-(1,5-dimethyl-6-oxo-1,6-dihydropyridin-3-yl)-1-(2-methoxyethyl)-5,6-dihydropyrrolo[3,4-c]pyrazol-4(1H)-one] | 14 nM | 13 nM | 3000 nM
Cc1nn(-c2cccnc2F)c2c1C(=O)N(c1cc(C)c(=O)n(C)c1)C2c1ccc(Cl)cc1 (stereo not drawn) [Example 19, 6-(4-chlorophenyl)-5-(1,5-dimethyl-6-oxo-1,6-dihydropyridin-3-yl)-1-(2-fluoropyridin-3-yl)-3-methyl-5,6-dihydropyrrolo[3,4-c]pyrazol-4(1H)-one] | 100 nM | 73 nM | 3800 nM
Cc1nn(C(C)C)c2c1C(=O)N(c1cc(C)c(=O)n(C)c1)C2c1ccc(Cl)cc1 (stereo not drawn) [Example 12, 6-(4-chlorophenyl)-5-(1,5-dimethyl-6-oxo-1,6-dihydropyridin-3-yl)-1-isopropyl-3-methyl-5,6-dihydropyrrolo[3,4-c]pyrazol-4(1H)-one] | 67 nM | 46 nM | 1400 nM
Cc1cc(N2C(=O)c3c(C4CC4)nn(C)c3C2c2ccc(Cl)cc2)cn(C)c1=O (stereo not drawn) [Example 1, 6-(4-chlorophenyl)-3-cyclopropyl-5-(1,5-dimethyl-6-oxo-1,6-dihydropyridin-3-yl)-1-methyl-5,6-dihydropyrrolo[3,4-c]pyrazol-4(1H)-one] | 28 nM | 30 nM | 1400 nM
COc1ccc(-n2nc3c(c2C)C(=O)N(c2cc(C)c(=O)n(C)c2)C3c2ccc(Cl)cc2)cn1 (stereo not drawn) [Example 20a, 6-(4-chlorophenyl)-5-(1,5-dimethyl-6-oxo-1,6-dihydropyridin-3-yl)-2-(6-methoxypyridin-3-yl)-3-methyl-5,6-dihydropyrrolo[3,4-c]pyrazol-4(2H)-one] | 62 nM | 50 nM | 2000 nM
COc1ncc(-n2nc(C)c3c2C(c2ccc(Cl)cc2)N(c2cc(Cl)c(=O)n(C)c2)C3=O)cn1 (stereo not drawn) [Example 8a, 5-(5-chloro-1-methyl-6-oxo-1,6-dihydropyridin-3-yl)-6-(4-chlorophenyl)-1-(2-methoxypyrimidin-5-yl)-3-methyl-5,6-dihydropyrrolo[3,4-c]pyrazol-4(1H)-one] | 170 nM | 120 nM | > 37000 nM
COc1ccc(-n2nc(C)c3c2C(c2ccc(Cl)cc2)N(c2cc(C)c(=O)n(C)c2)C3=O)cc1 (stereo not drawn) [Example 13, 6-(4-chlorophenyl)-5-(1,5-dimethyl-6-oxo-1,6-dihydropyridin-3-yl)-1-(4-methoxyphenyl)-3-methyl-5,6-dihydropyrrolo[3,4-c]pyrazol-4(1H)-one] | 103 nM | 75.5 nM | 2200 nM
Cc1[nH]nc2c1C(=O)N(c1cc(Cl)c(=O)n(C)c1)C2c1ccc(Cl)cc1 (stereo not drawn) [Example 6, 5-(5-chloro-1-methyl-6-oxo-1,6-dihydropyridin-3-yl)-6-(4-chlorophenyl)-3-methyl-5,6-dihydropyrrolo[3,4-c]pyrazol-4(2H)-one] | 120 nM | 80 nM | 4100 nM
